In US4426524A, “Heterocyclic substituted benzyl alcohol, insecticidal ester derivatives, and intermediates” (priority 1982, dated 1984):
Read-outs that look alike come from different tables or passages of the source.

Assays:
southern armyworm [1] = assay: Topical application, southern armyworm; format: in vivo, Spodoptera eridania; details: SAW; for Topical % Kill @ 5000 ng/insect: 24 hours
Description: (§1) Topical Application: The compounds of this invention were tested for insecticidal activity against various insect species selected from southern armyworm (Spodoptera eridania), Mexican bean beetle, (Epilachna varivestis), milkweed bug (Oncopeltus fasciatus), and cabbage looper (Tricoplusia ni) by applying to the second or third dorsal thoracic segment of each larvae a one microliter droplet containing 5 mg/mL of test compound in acetone (5000 ng/insect). The test was allowed to stand 24 hours after application and was then read to determine the percent kill.
(§2) To determine the LD50 of the compounds, the topical application test was repeated by applying various amounts of toxicant. Also included among the species tested against for this determination were tobacco budworm (Heliothis virescens), beet armyworm (Spodoptera exigua), and boll weevil (Anthonomus grandis).

cabbage looper = assay: Topical application, cabbage looper; format: in vivo, Tricoplusia ni; details: CL; for Topical % Kill @ 5000 ng/insect: 24 hours
Description: as §1, §2

tobacco budworm = assay: Topical application, tobacco budworm; format: in vivo, Heliothis virescens; details: TBW
Description: as §1, §2

southern armyworm [2] = assay: Foliar application, southern armyworm; format: in vivo; details: Spodoptera eridania, read-out: Foliar % Kill (ppm)
Description: (§3) Foliar Application: The activity of some of the compounds of the invention against various test species selected from pea aphid (Acyrthosiphon pisum), twospotted spider mite (Tetranychus urticae), southern armyworm (Spodoptera eridania), Mexican bean beetle (Epilachna varivestis), and cabbage looper (Tricoplusia ni) was determined by foliar application of the test compound. The test materials were formulated as aqueous solutions containing 10% acetone and 0.25% acetylphenoxypolyethoxyethanol. Activity against pea aphid was determined on English fava bean plants the leaves of which were sprayed to runoff with various concentrations of test solution prior to infestation with adult aphids. Activity against twospotted spider mite was evaluated on pinto bean plants whose leaves were sprayed to runoff with various concentrations of test solution after infestation with adult mites. Activity against the remaining species was evaluated on pinto bean plants whose leaves were sprayed to runoff with various concentrations of test solution before infestation with the appropriate immature insects. Mortality was read approximately 48 hours after treatment.

Mexican bean beetle [3] = assay: Topical application, Mexican bean beetle; format: in vivo, Epilachna varivestis; details: MBB; for Topical % Kill @ 5000 ng/insect: 24 hours
Description: as §1, §2

pea aphid = assay: Foliar application, pea aphid; format: in vivo; details: Acyrthosiphon pisum, read-out: Foliar % Kill (ppm)
Description: as §3

twospotted spider mite = assay: Foliar application, twospotted spider mite; format: in vivo; details: Tetranychus urticae, read-out: Foliar % Kill (ppm)
Description: as §3

Mexican bean beetle [4] = assay: Foliar application, Mexican bean beetle; format: in vivo; details: Epilachna varivestis, read-out: Foliar % Kill (ppm)
Description: as §3

milkweed bug = assay: Topical application, milkweed bug; format: in vivo, Oncopeltus fasciatus; details: MWB; for Topical % Kill @ 5000 ng/insect: 24 hours
Description: as §1, §2

Row | Compound | Topical LD50 (southern armyworm [1]) [ng/insect] | Topical % Kill @ 5000 ng/insect (southern armyworm [1]) [%] | Topical LD50 (cabbage looper) [ng/insect] | mortality at 500 ppm (southern armyworm [2]; SAW, foliar, 48 hours) [%] | Topical LD50 (Mexican bean beetle [3]) [ng/insect] | Topical % Kill @ 5000 ng/insect (Mexican bean beetle [3]) [%] | mortality at 500 ppm (pea aphid; PA, foliar, 48 hours) [%] | mortality at 16 ppm (twospotted spider mite; TSM, foliar, 48 hours) [%] | mortality at 64 ppm (Mexican bean beetle [4]; MBB, foliar, 48 hours) [%] | Topical LD50 (milkweed bug) [ng/insect] | Topical % Kill @ 5000 ng/insect (milkweed bug) [%] | mortality at 500 ppm (twospotted spider mite; TSM, foliar, 48 hours) [%] | also measured
1 | CC1(C)C(C=C(Cl)Cl)C1C(=O)OCc1cccc(-c2cccs2)c1 (mixture of isomers) [a, 3-(2-thienyl)phenylmethyl cis,trans-3-(2,2-dichloroethenyl)-2,2-dimethylcyclopropanecarboxylate] | 148 | 100 | 3649 | – | – | – | – | – | – | – | – | – | Topical % Kill @ 5000 ng/insect (cabbage looper): 100%
2 | Cc1c(COC(=O)C2C(C=C(Cl)Cl)C2(C)C)cccc1-c1ccco1 (mixture of isomers) [o, [3-(2-furanyl)-2-methylphenyl]methyl cis,trans-3-(2,2-dichloroethenyl)-2,2-dimethylcyclopropanecarboxylate] | 146 | 100 | 536 | 100 | 86 | 100 | 100 | 0 | 45 | 450 | 100 | – | Topical LD50 (tobacco budworm): 45 ng/insect
3 | CC1(C)[C@H](C=C(Cl)Cl)[C@@H]1C(=O)OCc1cccc(-c2cccs2)c1 (relative stereo) [b, 3-(2-thienyl)phenylmethyl cis-3-(2,2-dichloroethenyl)-2,2-dimethylcyclopropanecarboxylate] | 54 | – | 1275 | – | 471 | – | – | – | – | 1715 | – | 0 | mortality at 512 ppm (southern armyworm [2]; SAW, foliar, 512 ppm, 48 hours): 95%; mortality at 512 ppm (pea aphid; PA, foliar, 512 ppm, 48 hours): 80%; mortality at 512 ppm (Mexican bean beetle [4]; MBB, foliar, 512 ppm, 48 hours): 80%
4 | CC1(C)[C@@H](C=C(Cl)Cl)[C@@H]1C(=O)OCc1cccc(-c2cccs2)c1 (relative stereo) [c, 3-(2-thienyl)phenylmethyl trans-3-(2,2-dichloroethenyl)-2,2-dimethylcyclopropanecarboxylate] | 421 | 100 | – | – | – | – | – | – | – | – | – | – | Topical % Kill @ 5000 ng/insect (cabbage looper): 0%
5 | CC1(C)[C@H](C=C(Cl)Cl)[C@@H]1C(=O)OCc1cccc(-c2ccco2)c1 (relative stereo) [j, [3-(2-furanyl)phenyl]methyl cis-3-(2,2-dichloroethenyl)-2,2-dimethylcyclopropanecarboxylate] | 377 | 100 | – | – | – | 30 | 40 | – | – | – | 0 | 0 | mortality at 512 ppm (southern armyworm [2]; SAW, foliar, 512 ppm, 48 hours): 100%; mortality at 512 ppm (Mexican bean beetle [4]; MBB, foliar, 512 ppm, 48 hours): 50%
6 | CC1(C)[C@H](C=C(Cl)C(F)(F)F)[C@@H]1C(=O)OCc1cccc(-c2ccco2)c1 (relative stereo) [k, [3-(2-furanyl)phenyl]methyl cis-3-(2-chloro-3,3,3-trifluoro-1-propenyl)-2,2-dimethylcyclopropanecarboxylate] | 366 | 100 | – | – | 510 | 90 | – | – | – | – | 40 | – | mortality at 512 ppm (southern armyworm [2]; SAW, foliar, 512 ppm, 48 hours): 100%; mortality at 512 ppm (pea aphid; PA, foliar, 512 ppm, 48 hours): 100%; mortality at 64 ppm (twospotted spider mite; TSM, foliar, 64 ppm, 48 hours): 0%; mortality at 512 ppm (Mexican bean beetle [4]; MBB, foliar, 512 ppm, 48 hours): 100%
7 | CC1(C)[C@H](C(=O)OCc2cccc(-c3ccc(Br)o3)c2)[C@@H]1C=C(Cl)Cl (relative stereo) [l, [3-(5-bromofuranyl)phenyl]methyl cis-3-(2,2-dichloroethenyl)-2,2-dimethylcyclopropanecarboxylate] | 1819 | 100 | – | – | – | 35 | – | – | – | – | 0 | – | mortality at 512 ppm (southern armyworm [2]; 48 h): 100%; mortality at 512 ppm (pea aphid; 48 h): 75%; mortality at 64 ppm (twospotted spider mite; 48 h): 0%; mortality at 512 ppm (Mexican bean beetle [4]; 48 h): 80%
8 | Cc1c(COC(=O)[C@H]2[C@@H](C=C(Cl)C(F)(F)F)C2(C)C)cccc1-c1ccco1 (relative stereo) [m, [3-(2-furanyl)-2-methylphenyl]methyl cis-3-(2-chloro-3,3,3-trifluoro-1-propenyl)-2,2-dimethylcyclopropanecarboxylate] | 56 | 100 | 149 | 100 | 43 | 100 | 100 | 0 | 75 | 286 | 100 | – | Topical LD50 (tobacco budworm): 46 ng/insect
9 | Cc1c(COC(=O)[C@H]2[C@@H](C=C(Cl)Cl)C2(C)C)cccc1-c1ccco1 (relative stereo) [n, [3-(2-furanyl)-2-methylphenyl]methyl cis-3-(2,2-dichloroethenyl)-2,2-dimethylcyclopropanecarboxylate] | 73 | – | 341 | 100 | 72 | 100 | – | 0 | 40 | 1140 | 100 | – | Topical LD50 (tobacco budworm): 92 ng/insect; mortality at 64 ppm (pea aphid; PA, foliar, 64 ppm, 48 hours): 100%
10 | Cc1c(COC(=O)[C@H]2[C@@H](C=C(Cl)C(F)(F)F)C2(C)C)cccc1-c1cnccn1 (relative stereo) [p, [2-methyl-3-(pyrazinyl)phenyl]methyl cis-3-(2-chloro-3,3,3-trifluoro-1-propenyl)-2,2-dimethylcyclopropanecarboxylate] | 1948 | 90 | – | 100 | 93 | 100 | 100 | – | 80 | 1050 | 100 | 100 | –
11 | Cc1c(COC(=O)[C@@H]2[C@H](C=C(Cl)Cl)C2(C)C)cccc1-c1cnccn1 (relative stereo) [q, [2-methyl-3-(pyrazinyl)phenyl]methyl cis-(2,2-dichloroethenyl)-2,2-dimethylcyclopropanecarboxylate] | 2387 | 90 | – | 85 | 269 | 90 | 100 | 0 | 55 | 4915 | 90 | – | –
12 | Cc1c(COC(=O)[C@H]2[C@@H](C=C(Cl)C(F)(F)F)C2(C)C)cccc1-c1cccnc1 (relative stereo) [r, [2-methyl-3-(pyridin-3-yl)phenyl]methyl cis-3-(2-chloro-3,3,3-trifluoro-1-propenyl)-2,2-dimethylcyclopropanecarboxylate] | 2626 | 100 | – | 100 | 863 | – | 95 | 0 | 25 | 1047 | 100 | – | –
13 | Cc1c(COC(=O)[C@H]2[C@@H](C=C(Cl)C(F)(F)F)C2(C)C)cccc1-c1ccccn1 (relative stereo) [s, [2-methyl-3-(pyridin-2-yl)phenyl]methyl cis-3-(2-chloro-3,3,3-trifluoro-1-propenyl)-2,2-dimethylcyclopropanecarboxylate] | 60 | 100 | – | 100 | 38 | 100 | 100 | – | 60 | 607 | 100 | 80 | –
